From patent publication US20250186405A1, “Compound For Use In Treating Narcolepsy” (Alkermes, Inc., priority 2023, published 2025)

Test system: subjects with narcolepsy type-2 (NT2)
Assay: Part 5 POC NT2: treatment-emergent adverse events, single doses, crossover
[1] = Total (any Compound A dose), N = 9

Experimental: Part 5 consisted of a 4-way, 4-period crossover study design in approximately 8 subjects (2 subjects per sequence; minimum of 4 subjects with 1 subject per sequence). Subjects were randomized 1:1:1:1 to 1 of 4 sequences with 4 treatment periods (3 single doses of Compound A and 1 dose of matching placebo), with up to 48 hours of washout between treatments. Treatments were administered under fasted state.
Subjects were randomized to 1 of 4 sequences. […] In each period, subjects were administered a single dose of study drug (either Compound A or placebo) as per the randomization schedule with approximately 240 mL of noncarbonated water following overnight fasting. No food was given for at least 3 hours after dose administration (i.e., fast can be broken after the 3-hour PK time point is collected). Water was allowed ad libitum except for 1 hour before and 1 hour after study drug administration. Safety assessments including AEs, safety ECGs, vital signs, and clinical laboratory tests were conducted, and plasma PK samples were collected. Furthermore, BP and HR were monitored once every hour for 12 hours on the dosing days.
Adverse events (AEs) and serious adverse events (SAEs) were monitored continuously until the completion of the study.
Nine subjects with NT2 were dosed in Part 5 (POC in NT2) in a randomized 4-sequence 4-period cross-over design. Each dose of Compound A or matching placebo was separated by 2 days. A 14-day washout period preceded the treatment period and included discontinuation of narcolepsy medications. All 9 subjects underwent the washout period and received at least one dose of Compound A. All subjects completed all 4-way randomized crossover periods.

CS(=O)(=O)N[C@H]1CCCN2C(=O)COc3ccccc3C3CCC(CC3)OCC12 (stereo partly drawn) [Compound A, N-[(4S,4aR,7α,10α)-1,2,3,4,4a,5,7,8,9,10,16,17-dodecahydro-17-oxo-7,10-ethanopyrido[1,2-d][1,7,4]benzodioxaazacyclotridecin-4-yl]methanesulfonamide]
3 (33.3) n (%): Any TEAE (5 mg single dose, N = 9) | Subjects with at least one TEAE (5 mg single dose, N = 9) | TEAE by Highest Severity: Mild (5 mg single dose, N = 9) | TEAE by Highest Relationship: Not Related (12 mg single dose, N = 9) | Drug Related TEAE by Preferred Term: Pollakiuria (25 mg single dose, N = 9) | TEAE by Preferred Term: Pollakiuria (25 mg single dose, N = 9) | Drug Related TEAE by Preferred Term: Pollakiuria [1] | TEAE by Preferred Term: Pollakiuria [1]
1 (1.1) n (%): Drug Related TEAE by Preferred Term: Pollakiuria (12 mg single dose, N = 9)
1 (11.1) n (%): Drug Related TEAE by Preferred Term: Initial insomnia (5 mg single dose, N = 9) | Subjects with at least one treatment-related TEAE (5 mg single dose, N = 9) | TEAE by Highest Relationship: Related (5 mg single dose, N = 9) | TEAE by Preferred Term: Dry skin (5 mg single dose, N = 9) | TEAE by Preferred Term: Initial insomnia (5 mg single dose, N = 9) | TEAE by Preferred Term: Skin lesion (5 mg single dose, N = 9) | Subjects with at least one treatment-related TEAE (12 mg single dose, N = 9) | TEAE by Highest Relationship: Related (12 mg single dose, N = 9) | TEAE by Preferred Term: Constipation (12 mg single dose, N = 9) | TEAE by Preferred Term: Nausea (12 mg single dose, N = 9) | TEAE by Preferred Term: Pollakiuria (12 mg single dose, N = 9) | TEAE by Preferred Term: Rash (12 mg single dose, N = 9) | Drug Related TEAE by Preferred Term: Dizziness postural (25 mg single dose, N = 9) | Drug Related TEAE by Preferred Term: Feeling jittery (25 mg single dose, N = 9) | Drug Related TEAE by Preferred Term: Headache (25 mg single dose, N = 9) | Drug Related TEAE by Preferred Term: Photophobia (25 mg single dose, N = 9) | Drug Related TEAE by Preferred Term: Urinary incontinence (25 mg single dose, N = 9) | TEAE by Highest Relationship: Not Related (25 mg single dose, N = 9) | TEAE by Highest Severity: Moderate (25 mg single dose, N = 9) | TEAE by Preferred Term: Contusion (25 mg single dose, N = 9) | TEAE by Preferred Term: Dizziness postural (25 mg single dose, N = 9) | TEAE by Preferred Term: Feeling jittery (25 mg single dose, N = 9) | TEAE by Preferred Term: Headache (25 mg single dose, N = 9) | TEAE by Preferred Term: Nasal dryness (25 mg single dose, N = 9) | TEAE by Preferred Term: Photophobia (25 mg single dose, N = 9) | TEAE by Preferred Term: Urinary incontinence (25 mg single dose, N = 9) | Drug Related TEAE by Preferred Term: Dizziness postural [1] | Drug Related TEAE by Preferred Term: Feeling jittery [1] | Drug Related TEAE by Preferred Term: Headache [1] | Drug Related TEAE by Preferred Term: Initial insomnia [1] | Drug Related TEAE by Preferred Term: Photophobia [1] | Drug Related TEAE by Preferred Term: Urinary incontinence [1] | TEAE by Highest Relationship: Not Related [1] | TEAE by Highest Severity: Moderate [1] | TEAE by Preferred Term: Constipation [1] | TEAE by Preferred Term: Contusion [1] | TEAE by Preferred Term: Dizziness postural [1] | TEAE by Preferred Term: Dry skin [1] | TEAE by Preferred Term: Feeling jittery [1] | TEAE by Preferred Term: Headache [1] | TEAE by Preferred Term: Initial insomnia [1] | TEAE by Preferred Term: Nasal dryness [1] | TEAE by Preferred Term: Nausea [1] | TEAE by Preferred Term: Photophobia [1] | TEAE by Preferred Term: Rash [1] | TEAE by Preferred Term: Skin lesion [1] | TEAE by Preferred Term: Urinary incontinence [1]
well tolerated: Tolerability (NT2, 5, 12 and 25 mg)
0 n (%): AE Leading to Study Drug Discontinuation (5 mg single dose, N = 9) | Any SAEs (5 mg single dose, N = 9) | Death (5 mg single dose, N = 9) | Drug Related TEAE by Preferred Term: Altered state of consciousness (5 mg single dose, N = 9) | Drug Related TEAE by Preferred Term: Dizziness (5 mg single dose, N = 9) | Drug Related TEAE by Preferred Term: Dizziness postural (5 mg single dose, N = 9) | Drug Related TEAE by Preferred Term: Feeling jittery (5 mg single dose, N = 9) | Drug Related TEAE by Preferred Term: Headache (5 mg single dose, N = 9) | Drug Related TEAE by Preferred Term: Insomnia (5 mg single dose, N = 9) | Drug Related TEAE by Preferred Term: Photophobia (5 mg single dose, N = 9) | Drug Related TEAE by Preferred Term: Pollakiuria (5 mg single dose, N = 9) | Drug Related TEAE by Preferred Term: Tachycardia (5 mg single dose, N = 9) | Drug Related TEAE by Preferred Term: Urinary incontinence (5 mg single dose, N = 9) | TEAE by Highest Severity: Moderate (5 mg single dose, N = 9) | TEAE by Highest Severity: Severe (5 mg single dose, N = 9) | TEAE by Preferred Term: Altered state of consciousness (5 mg single dose, N = 9) | TEAE by Preferred Term: Constipation (5 mg single dose, N = 9) | TEAE by Preferred Term: Contusion (5 mg single dose, N = 9) | TEAE by Preferred Term: Dizziness (5 mg single dose, N = 9) | TEAE by Preferred Term: Dizziness postural (5 mg single dose, N = 9) | TEAE by Preferred Term: Feeling jittery (5 mg single dose, N = 9) | TEAE by Preferred Term: Headache (5 mg single dose, N = 9) | TEAE by Preferred Term: Insomnia (5 mg single dose, N = 9) | TEAE by Preferred Term: Nasal dryness (5 mg single dose, N = 9) | TEAE by Preferred Term: Nausea (5 mg single dose, N = 9) | TEAE by Preferred Term: Photophobia (5 mg single dose, N = 9) | TEAE by Preferred Term: Pollakiuria (5 mg single dose, N = 9) | TEAE by Preferred Term: Rash (5 mg single dose, N = 9) | TEAE by Preferred Term: Tachycardia (5 mg single dose, N = 9) | TEAE by Preferred Term: Urinary incontinence (5 mg single dose, N = 9) | AE Leading to Study Drug Discontinuation (12 mg single dose, N = 9) | Any SAEs (12 mg single dose, N = 9) | Death (12 mg single dose, N = 9) | Drug Related TEAE by Preferred Term: Altered state of consciousness (12 mg single dose, N = 9) | Drug Related TEAE by Preferred Term: Dizziness (12 mg single dose, N = 9) | Drug Related TEAE by Preferred Term: Dizziness postural (12 mg single dose, N = 9) | Drug Related TEAE by Preferred Term: Feeling jittery (12 mg single dose, N = 9) | Drug Related TEAE by Preferred Term: Headache (12 mg single dose, N = 9) | Drug Related TEAE by Preferred Term: Initial insomnia (12 mg single dose, N = 9) | Drug Related TEAE by Preferred Term: Insomnia (12 mg single dose, N = 9) | Drug Related TEAE by Preferred Term: Photophobia (12 mg single dose, N = 9) | Drug Related TEAE by Preferred Term: Tachycardia (12 mg single dose, N = 9) | Drug Related TEAE by Preferred Term: Urinary incontinence (12 mg single dose, N = 9) | TEAE by Highest Severity: Moderate (12 mg single dose, N = 9) | TEAE by Highest Severity: Severe (12 mg single dose, N = 9) | TEAE by Preferred Term: Altered state of consciousness (12 mg single dose, N = 9) | TEAE by Preferred Term: Contusion (12 mg single dose, N = 9) | TEAE by Preferred Term: Dizziness (12 mg single dose, N = 9) | TEAE by Preferred Term: Dizziness postural (12 mg single dose, N = 9) | TEAE by Preferred Term: Dry skin (12 mg single dose, N = 9) | TEAE by Preferred Term: Feeling jittery (12 mg single dose, N = 9) | TEAE by Preferred Term: Headache (12 mg single dose, N = 9) | TEAE by Preferred Term: Initial insomnia (12 mg single dose, N = 9) | TEAE by Preferred Term: Insomnia (12 mg single dose, N = 9) | TEAE by Preferred Term: Nasal dryness (12 mg single dose, N = 9) | TEAE by Preferred Term: Photophobia (12 mg single dose, N = 9) | TEAE by Preferred Term: Skin lesion (12 mg single dose, N = 9) | TEAE by Preferred Term: Tachycardia (12 mg single dose, N = 9) | TEAE by Preferred Term: Urinary incontinence (12 mg single dose, N = 9) | AE Leading to Study Drug Discontinuation (25 mg single dose, N = 9) | Any SAEs (25 mg single dose, N = 9) | Death (25 mg single dose, N = 9) | Drug Related TEAE by Preferred Term: Altered state of consciousness (25 mg single dose, N = 9) | Drug Related TEAE by Preferred Term: Initial insomnia (25 mg single dose, N = 9) | Drug Related TEAE by Preferred Term: Tachycardia (25 mg single dose, N = 9) | TEAE by Highest Severity: Severe (25 mg single dose, N = 9) | TEAE by Preferred Term: Altered state of consciousness (25 mg single dose, N = 9) | TEAE by Preferred Term: Constipation (25 mg single dose, N = 9) | TEAE by Preferred Term: Dry skin (25 mg single dose, N = 9) | TEAE by Preferred Term: Initial insomnia (25 mg single dose, N = 9) | TEAE by Preferred Term: Nausea (25 mg single dose, N = 9) | TEAE by Preferred Term: Rash (25 mg single dose, N = 9) | TEAE by Preferred Term: Skin lesion (25 mg single dose, N = 9) | TEAE by Preferred Term: Tachycardia (25 mg single dose, N = 9) | AE Leading to Study Drug Discontinuation [1] | Any SAEs [1] | Death [1] | Drug Related TEAE by Preferred Term: Altered state of consciousness [1] | Drug Related TEAE by Preferred Term: Tachycardia [1] | TEAE by Highest Severity: Severe [1] | TEAE by Preferred Term: Altered state of consciousness [1] | TEAE by Preferred Term: Tachycardia [1]
7 (77.8) n (%): Any TEAE (25 mg single dose, N = 9) | Subjects with at least one TEAE (25 mg single dose, N = 9) | Any TEAE [1] | Subjects with at least one TEAE [1]
77.8%: Subjects with at least one TEAE (NT2, N = 9, all periods)
6 (66.7) n (%): Subjects with at least one treatment-related TEAE (25 mg single dose, N = 9) | TEAE by Highest Relationship: Related (25 mg single dose, N = 9) | TEAE by Highest Severity: Mild (25 mg single dose, N = 9) | Subjects with at least one treatment-related TEAE [1] | TEAE by Highest Relationship: Related [1] | TEAE by Highest Severity: Mild [1]
4 (44.4) n (%): Any TEAE (12 mg single dose, N = 9) | Subjects with at least one TEAE (12 mg single dose, N = 9) | TEAE by Highest Severity: Mild (12 mg single dose, N = 9)
2 (22.2) n (%): TEAE by Highest Relationship: Not Related (5 mg single dose, N = 9) | Drug Related TEAE by Preferred Term: Dizziness (25 mg single dose, N = 9) | Drug Related TEAE by Preferred Term: Insomnia (25 mg single dose, N = 9) | TEAE by Preferred Term: Dizziness (25 mg single dose, N = 9) | TEAE by Preferred Term: Insomnia (25 mg single dose, N = 9) | Drug Related TEAE by Preferred Term: Dizziness [1] | Drug Related TEAE by Preferred Term: Insomnia [1] | TEAE by Preferred Term: Dizziness [1] | TEAE by Preferred Term: Insomnia [1]
